Measurements from paper PMC6630832, “3-Vinylazetidin-2-Ones: Synthesis, Antiproliferative and Tubulin Destabilizing Activity in MCF-7 and MDA-MB-231 Breast Cancer Cells” (Pharmaceuticals, 2019).
Where “and” joins values, the source holds several entries; their conditions need not be identical. Equal values may be shown once. Read-outs that look alike come from different tables or passages of the source.

Columns and labels:
purified bovine tubulin = biological target: T1, purified bovine tubulin (Bos taurus, UniProt P81947+Q6B856); assay: Tubulin polymerization assay; type: biochemical; details: for vmax of tubulin polymerization: absorbance at 340 nm, 37 °C
T1 construct: Purified (>99%) bovine brain tubulin (3 mg/mL); purchased Cytoskeleton Inc. BK006; host or cells: bovine brain (tissue-purified)
T1 sequence (Q6B856 whole entry): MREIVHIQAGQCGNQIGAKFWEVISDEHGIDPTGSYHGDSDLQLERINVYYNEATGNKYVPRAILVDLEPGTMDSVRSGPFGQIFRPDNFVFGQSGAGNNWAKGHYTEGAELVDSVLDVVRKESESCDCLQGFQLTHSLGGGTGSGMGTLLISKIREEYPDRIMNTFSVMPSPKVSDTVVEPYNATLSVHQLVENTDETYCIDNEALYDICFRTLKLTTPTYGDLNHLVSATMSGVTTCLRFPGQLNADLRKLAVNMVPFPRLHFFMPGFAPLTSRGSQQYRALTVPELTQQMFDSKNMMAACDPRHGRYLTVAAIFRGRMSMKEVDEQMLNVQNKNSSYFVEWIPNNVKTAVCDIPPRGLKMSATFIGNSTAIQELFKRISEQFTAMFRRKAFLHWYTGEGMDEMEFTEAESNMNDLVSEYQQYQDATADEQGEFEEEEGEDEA
T1 sequence (P81947 whole entry): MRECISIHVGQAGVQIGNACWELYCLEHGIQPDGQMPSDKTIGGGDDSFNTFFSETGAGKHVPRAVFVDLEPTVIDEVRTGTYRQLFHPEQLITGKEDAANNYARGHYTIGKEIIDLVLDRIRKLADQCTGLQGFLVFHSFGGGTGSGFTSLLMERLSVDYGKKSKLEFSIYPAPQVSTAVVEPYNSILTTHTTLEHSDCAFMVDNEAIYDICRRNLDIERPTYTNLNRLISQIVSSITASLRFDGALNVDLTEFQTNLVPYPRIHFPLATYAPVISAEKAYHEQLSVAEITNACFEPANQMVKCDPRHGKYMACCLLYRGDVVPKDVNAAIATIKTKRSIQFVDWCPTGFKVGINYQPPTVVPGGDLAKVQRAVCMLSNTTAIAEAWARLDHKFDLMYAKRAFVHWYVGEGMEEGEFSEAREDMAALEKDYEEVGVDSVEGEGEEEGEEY
Procedure: The assembly of purified bovine tubulin was monitored using a kit, BK006, purchased from Cytoskeleton Inc., 1830 S Acoma St, Denver, CO, 80223, USA.. The assay was carried out in accordance with the manufacturer’s instructions in the tubulin polymerisation assay kit manual using the standard assay conditions. The values reported represent the average values from two independent assays. Purified (>99%) bovine brain tubulin (3 mg/mL) in a buffer consisting of 80 mM PIPES (pH 6.9), 0.5 mM EGTA, 2 mM MgCl2, 1 mM GTP and 10% glycerol was incubated at 37 °C in the presence of either vehicle (2% (v/v) ddH2O) or compounds 7h, 7i, 7s, 7t (initially 10 µM in EtOH); CA-4 and Paclitaxel were used as controls. Light is scattered proportionally to the concentration of polymerised microtubules in the assay. Therefore, tubulin assembly was monitored turbidimetrically at 340 nm at 37 °C in a Spectramax 340 PC spectrophotometer (Molecular Devices, 3860 N 1st St, San Jose, CA, USA). The absorbance was measured at 30 s intervals for 60 min.

[1] = tested on: human MDA-MB-231 breast cancer cells; assay: Cell viability (Alamar Blue) antiproliferative assay in MDA-MB-231 cells; type: cell-based; details: mean ± SEM
Procedure: The human breast carcinoma cell line MCF-7, was purchased from the European Collection of Animal Cell Cultures (ECACC) and was cultured in Eagle’s minimum essential medium with 10% fetal bovine serum, 2 mM L-glutamine and 100 μg/mL penicillin/streptomycin. The medium was supplemented with 1% non-essential amino acids. The human breast carcinoma cell line MDA-MB-231 was purchased from the European Collection of Animal Cell Cultures (ECACC). MDA-MB-231 cells were maintained in Dulbecco’s modified Eagle’s medium (DMEM) supplemeted with 10% (v/v) fetal bovine serum, 2 mM L-glutamine and 100 μg/mL penicillin/streptomycin (complete medium). All media contained 100 U/mL penicillin and 100 μg/mL streptomycin. Triple negative breast cancer Hs578T cells and its invasive variant Hs578Ts(i)8 were obtained as a kind gift from Dr. Susan McDonnell, School of Chemical and Bioprocess Engineering, University College Dublin and were cultured in Dulbecco’s Modified Eagle’s Media (DMEM) with GlutaMAX^TM-I, with the same supplement as for MDA-MB-231 cells in the absence of non-essential amino acids. HEK-293T normal epithelial embryonic kidney cells were cultured in Dulbecco’s Modified Eagle’s Medium (DMEM) with GlutaMAX^TM-I in the absence of non-essential amino acids. K562 and HL-60 cells were originally obtained from the European Collection of Cell Cultures (Salisbury, UK).The K562 cells were derived from a patient in the blast crisis stage of CML HL-60 cells were derive from a patient with acute myeloid leukaemia. Cells were cultured in RPMI-1640 Glutamax medium supplemented with 10% FCS media, and 100 μg/mL penicillin/streptomycin. Cells were maintained at 37 °C in 5% CO2 in a humidified incubator. All cells were sub-cultured three times/week (adherent cells by trypsinisation).
Cells were seeded at a density of 5 × 10^3 cells/well (MCF-7), in triplicate in 96-well plates. After 24 h, cells were then treated with either medium alone, vehicle [1% ethanol (v/v)] or with serial dilutions of CA-4 or β-lactam analogue. Cell viability for MCF-7 and MDA-MB-231 was analysed using the Alamar Blue assay (Invitrogen Corp, Thermo Fisher Scientific, 168 Third Avenue, Waltham, MA, USA) according to the manufacturer’s instructions. After 72 h, Alamar Blue [10% (v/v)] was added to each well and plates were incubated for 3–5 h at 37 °C in the dark. Fluorescence was read using a 96-well fluorimeter with excitation at 530 nm and emission at 590 nm. Results were expressed as percentage viability relative to vehicle control (100%). Dose response curves were plotted and IC50 values (concentration of drug resulting in 50% reduction in cell survival) were obtained using the commercial software package Prism (GraphPad Software, Inc., 2365 Northside, Suite 560, San Diego, CA, USA). Experiments were performed in triplicate on at least three separate occasions.

MCF-7 cells = assay: Lactate dehydrogenase (LDH) assay for cytotoxicity; type: cell-based; details: Homo sapiens, MCF7, 72 h, read-out: cell death (LDH assay)
Procedure: Cytotoxicity was determined using the CytoTox 96 non-radioactive cytotoxicity assay (Promega Corporation; 2800 Woods Hollow Road, Madison, WI, USA) following the manufacturer’s protocol. Briefly, MCF-7 cells were seeded in 96-well plates, incubated for 24 hr and then treated with test compounds (7d, 7h, 7i, 7q, 7r, 7u, 7t, 10d, 10f, 12) as described in the cell viability assay above. After 72 h, 20 μL of ‘lysis solution (10X)’ was added to control wells and the plate was incubated for a further 1 hr to ensure 100% death. 50 μL of supernatant was carefully removed from each well and transferred to a new 96-well plate. 50 μL of reconstituted ‘substrate mix’ was added and the plate was placed in the dark at room temperature for 30 min. After this period, 50 μL of ‘stop solution’ was added to each well and the absorbance was read at a wavelength of 490 nm using a Dynatech MR5000 plate reader. The percentage cell death at 10 μM was calculated.

U251 = assay: NCI60 screen (SRB), CNS Cancer; type: cell-based; details: Homo sapiens, U-251
HS 578T = assay: NCI60 screen (SRB), Breast cancer; type: cell-based; details: Homo sapiens
UACC-257 = assay: NCI60 screen (SRB), Melanoma; type: cell-based; details: Homo sapiens
SNB-75 = assay: NCI60 screen (SRB), CNS Cancer; type: cell-based; details: Homo sapiens
HCT-116 = assay: NCI60 screen (SRB), Colon Cancer; type: cell-based; details: Homo sapiens
MDA-MB-435 = assay: NCI60 screen (SRB), Melanoma; type: cell-based; details: Homo sapiens
HCT-2998 = assay: NCI60 screen (SRB), Colon Cancer; type: cell-based
HT29 = assay: NCI60 screen (SRB), Colon Cancer; type: cell-based; details: Homo sapiens, HT-29
T-47D = assay: NCI60 screen (SRB), Breast cancer; type: cell-based; details: Homo sapiens, T47D
[2] = 10 μM, with reference to ethanol control
[3] = NCI60 CNS Cancer cell line U251, read-out: GI50
[4] = NCI60 Breast cancer cell line HS 578T, read-out: GI50
[5] = NCI60 Melanoma cell line UACC-257, read-out: GI50
[6] = NCI60 CNS Cancer cell line SNB-75, read-out: GI50
[7] = NCI60 Colon Cancer cell line HCT-116, read-out: GI50
[8] = NCI60 Melanoma cell line MDA-MB-435, read-out: GI50
[9] = NCI60 Colon Cancer cell line HCT-2998, read-out: GI50
[10] = NCI60 Colon Cancer cell line HT29, read-out: GI50
[11] = NCI60 Breast cancer cell line T-47D, read-out: GI50

| SMILES | IC50 [1] | cytotoxicity at 10 µM (MCF-7 cells) | GI50 (U251) | GI50 (HS 578T; Hs-578T) | vmax of tubulin polymerization (purified bovine tubulin; 10 μM) | fold reduction in vmax of tubulin polymerization (purified bovine tubulin; [2]) | GI50 (UACC-257; UACC-257) | GI50 (SNB-75; SNB-75) | GI50 (HCT-116; HCT-116) | GI50 (MDA-MB-435; MDA-MB-435) | GI50 (HCT-2998) | GI50 (U251; [3]) | GI50 (HS 578T; [4]) | GI50 (UACC-257; [5]) | GI50 (SNB-75; [6]) | GI50 (HCT-116; [7]) | GI50 (MDA-MB-435; [8]) | GI50 (HCT-2998; [9]) | GI50 (HT29; [10]) | GI50 (T-47D; [11]) | also measured |
| --- | --- | --- | --- | --- | --- | --- | --- | --- | --- | --- | --- | --- | --- | --- | --- | --- | --- | --- | --- | --- | --- |
| COc1ccc(/C=C\c2cc(OC)c(OC)c(OC)c2)cc1O [CA-4, Combretastatin A-4, reference compound] | 43 nM | 11.8% | – | – | – | – | – | – | – | – | – | – | – | – | – | – | – | – | – | – | fold reduction in vmax of tubulin polymerization (purified bovine tubulin): 5.28 fold |
| C=CC1C(=O)N(c2cc(OC)c(OC)c(OC)c2)C1c1ccc(OC)cc1 (stereo not drawn) [Compound 7h, 4-(4-Methoxyphenyl)-1-(3,4,5-trimethoxyphenyl)-3-vinylazetidin-2-one] | – | 2.4% | 34.2 nM | 72.7 nM | 3.43 mOD/min | 2.45 fold | 42200 nM | 37.2 nM | 30.7 nM | 22.6 nM | 35.3 nM | – | – | – | – | – | – | – | – | – | GI50 (HT29): 33.7 nM; GI50 (T-47D): 20500 nM |
| C=CC1C(=O)N(c2cc(OC)c(OC)c(OC)c2)C1c1ccc(OC)c(O)c1 (stereo not drawn) [Compound 7s, 4-[3-Hydroxy-4-methoxyphenyl]-1-(3,4,5-trimethoxyphenyl)-3-vinylazetidin-2-one] | – | 16.1% | – | – | – | 8.7 fold and 8.70 fold | – | – | – | – | – | 15.6 nM | < 10 nM | > 100000 nM | 15.3 nM | < 10 nM | < 10 nM | 36.4 nM | 429 nM | 29.9 nM | fold reduction in vmax of tubulin polymerization (purified bovine tubulin; 1 μM): 2.61 fold; fold reduction in vmax of tubulin polymerization (purified bovine tubulin; 5 μM): 7.31 fold; IC50 (purified bovine tubulin; calculated from 1, 5 and 10 μM, read-out: IC50 for the inhibition of tubulin polymerization): 1370 nM |
| C=CC1C(=O)N(c2cc(OC)c(OC)c(OC)c2)C1c1ccc(OC)c(N)c1 (stereo not drawn) [Compound 7t, 4-(3-Amino-4-methoxyphenyl)-1-(3,4,5-trimethoxyphenyl)-3-vinylazetidin-2-one] | 30 ± 2 nM | 25% | 36.2 nM | 39.8 nM | 0.92 mOD/min | 9.15 fold | > 100000 nM | 30.1 nM | 27.6 nM | < 10 nM | 36.8 nM | – | – | – | – | – | – | – | – | – | GI50 (HT29): 17.9 nM |
| C=CC1C(=O)N(c2cc(OC)c(OC)c(OC)c2)C1c1ccc(OC)c(OP(=O)(O)O)c1 (stereo not drawn) [Compound 17b, 2-Methoxy-5-(1-(3,4,5-trimethoxyphenyl)-4-oxo-3-vinylazetidin-2-yl)phenyl dihydrogen phosphate] | – | – | – | – | – | – | – | – | – | – | – | 34.3 nM | 53.1 nM | > 100000 nM | 36.5 nM | 43.9 nM | 21 nM | 190 nM | 2780 nM | > 100000 nM | – |
| CCC1C(=O)N(c2cc(OC)c(OC)c(OC)c2)C1c1ccc(OC)c(OP(=O)(O)O)c1 (stereo not drawn) [Compound 17c, 5-(3-Ethyl-1-(3,4,5-trimethoxyphenyl)-4-oxoazetidin-2-yl)-2-methoxyphenyl dihydrogen phosphate] | 44 ± 7 nM | – | – | – | – | – | – | – | – | – | – | 31.3 nM | 37.1 nM | > 100000 nM | 23.7 nM | 35 nM | 12.8 nM | 40.9 nM | 356 nM | > 100000 nM | – |
